Measured values: patent US20160297833A1, “THIENOPYRIMIDINES AS MKNK1 AND MKNK2 INHIBITORS” (BAYER PHARMA AKTIENGESELLSCHAFT, priority 2013, published 2016)

Each molecule was assayed against T1, human full-length MKNK1 (Homo sapiens, UniProt Q9BUB5, T385D) (assay: MKNK1 kinase high ATP assay (TR-FRET)). Settings: Table 1; MKNK1 kinase high ATP assay, 2 mM ATP; read-out: MKNK1 IC50.
T1 construct: GST (N); purchased Carna Biosciences 02-145; host or cells: insect cells (baculovirus expression system)
T1 sequence (Q9BUB5 1-424 isoform Q9BUB5-2 T344D): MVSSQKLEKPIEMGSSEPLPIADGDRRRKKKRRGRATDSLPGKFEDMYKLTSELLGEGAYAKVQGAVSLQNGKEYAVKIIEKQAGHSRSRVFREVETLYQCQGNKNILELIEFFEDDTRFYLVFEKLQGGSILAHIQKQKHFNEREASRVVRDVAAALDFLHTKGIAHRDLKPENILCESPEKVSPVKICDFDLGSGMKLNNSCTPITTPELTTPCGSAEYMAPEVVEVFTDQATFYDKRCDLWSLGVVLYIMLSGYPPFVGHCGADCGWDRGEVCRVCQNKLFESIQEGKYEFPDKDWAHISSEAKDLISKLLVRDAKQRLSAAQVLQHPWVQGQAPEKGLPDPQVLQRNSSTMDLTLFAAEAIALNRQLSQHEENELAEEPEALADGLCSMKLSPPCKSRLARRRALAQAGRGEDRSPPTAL
Assay type: biochemical
Procedure, shortened: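 Full-length human MKNK1 (T385D) preincubated 15 min at 22 °C with compound in HEPES pH 7.5/MgCl2/DTT buffer; reaction with 2 mM ATP (final) and 0.06 μM biotinylated peptide (final), 30 min at 22 °C.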
`CSc1cc2[nH]ncc2cc1Nc1ncnc2sc3c(c12)CC[C@H](C(=O)N(C)C(C)C)C3` [Example 251, (7S)—N-Methyl-4-{[6-(methylsulfanyl)-1H-indazol-5-yl]amino}-N-(propan-2-yl)-5,6,7,8-tetrahydro[1]benzothieno[2,3-d]pyrimidine-7-carboxamide] gave an IC50 of 1.5 nM.
`CSc1cc2[nH]ncc2cc1Nc1ncnc2sc3c(c12)CC[C@H](C(=O)N1C[C@@H](C)O[C@@H](C)C1)C3` [Example 252, [(2R,6S)-2,6-Dimethylmorpholin-4-yl][(7S)-4-{[6-(methylsulfanyl)-1H-indazol-5-yl]amino}-5,6,7,8-tetrahydro[1]benzothieno[2,3-d]pyrimidin-7-yl]methanone] showed an IC50 of 1.5 nM.
`COCCN(C)C(=O)[C@H]1CCc2c(sc3ncnc(Nc4cc5cn[nH]c5cc4SC)c23)C1` [Example 253, (7S)—N-(2-Methoxyethyl)-N-methyl-4-{[6-(methylsulfanyl)-1H-indazol-5-yl]amino}-5,6,7,8-tetrahydro[1]benzothieno[2,3-d]pyrimidine-7-carboxamide] showed an IC50 of 1.9 nM.
`CSc1cc2[nH]ncc2cc1Nc1ncnc2sc3c(c12)CC[C@H](C(=O)N1CCOC[C@@H]1C)C3` [Example 254, [(3S)-3-Methylmorpholin-4-yl][(7S)-4-{[6-(methylsulfanyl)-1H-indazol-5-yl]amino}-5,6,7,8-tetrahydro[1]benzothieno[2,3-d]pyrimidin-7-yl]methanone] showed an IC50 of 1.3 nM.
`CSc1cc2[nH]ncc2cc1Nc1ncnc2sc3c(c12)CC[C@H](C(=O)N1CCOCC1)C3` [Example 255, [(7S)-4-{[6-(Methylsulfanyl)-1H-indazol-5-yl]amino}-5,6,7,8-tetrahydro[1]benzothieno[2,3-d]pyrimidin-7-yl](morpholin-4-yl)methanone] was tested, and the IC50 was 2 nM.
`CN(C)C(=O)[C@H]1CCc2c(sc3ncnc(Nc4cc5cn[nH]c5cc4OCCN(C)C(=O)OC(C)(C)C)c23)C1` [Example 256, tert-Butyl {2-[(5-{[(7S)-7-(dimethylcarbamoyl)-5,6,7,8-tetrahydro[1]benzothieno[2,3-d]pyrimidin-4-yl]amino}-1H-indazol-6-yl)oxy]ethyl}methylcarbamate] was tested, and the IC50 was 43.3 nM.
In the case of `CN(C)C(=O)[C@H]1CCc2c(sc3ncnc(Nc4cc5cn[nH]c5cc4OCCNC(=O)C(C)(C)C)c23)C1` [Example 257, (7S)-4-[(6-{2-[(2,2-Dimethylpropanoyl)amino]ethoxy}-1H-indazol-5-yl)amino]-N, N-dimethyl-5,6,7,8-tetrahydro[1]benzothieno[2,3-d]pyrimidine-7-carboxamide], the IC50 is reported as 2.4 nM.
With `COC(=O)NCCOc1cc2[nH]ncc2cc1Nc1ncnc2sc3c(c12)CC[C@H](C(=O)N(C)C)C3` [Example 258, Methyl {2-[(5-{[(7S)-7-(dimethylcarbamoyl)-5,6,7,8-tetrahydro[1]benzothieno[2,3-d]pyrimidin-4-yl]amino}-1H-indazol-6-yl)oxy]ethyl}carbamate] the IC50 was 0.4 nM.
`C[C@H](CNC(=O)OC(C)(C)C)Oc1cc2[nH]ncc2cc1Nc1ncnc2sc3c(c12)CC[C@H](C(=O)N(C)C)C3` [Example 259, tert-Butyl {(2R)-2-[(5-{[(7S)-7-(dimethylcarbamoyl)-5,6,7,8-tetrahydro[1]benzothieno[2,3-d]pyrimidin-4-yl]amino}-1H-indazol-6-yl)oxy]propyl}carbamate] showed an IC50 of 14.5 nM.
`CC(C)OC(=O)NCCOc1cc2[nH]ncc2cc1Nc1ncnc2sc3c(c12)CC[C@H](C(=O)N(C)C)C3` [Example 260, Propan-2-yl {2-[(5-{[(7S)-7-(dimethylcarbamoyl)-5,6,7,8-tetrahydro[1]benzothieno[2,3-d]pyrimidin-4-yl]amino}-1H-indazol-6-yl)oxy]ethyl}carbamate] gave an IC50 of 0.2 nM.
In the case of `CC(C)OC(=O)NC[C@@H](C)Oc1cc2[nH]ncc2cc1Nc1ncnc2sc3c(c12)CC[C@H](C(=O)N(C)C)C3` [Example 261, Propan-2-yl {(2R)-2-[(5-{[(7S)-7-(dimethylcarbamoyl)-5,6,7,8-tetrahydro[1]benzothieno[2,3-d]pyrimidin-4-yl]amino}-1H-indazol-6-yl)oxy]propyl}carbamate], the IC50 is reported as 3.2 nM.
In the case of `CCOC(=O)NCCOc1cc2[nH]ncc2cc1Nc1ncnc2sc3c(c12)CC[C@H](C(=O)N(C)C)C3` [Example 262, Ethyl {2-[(5-{[(7S)-7-(dimethylcarbamoyl)-5,6,7,8-tetrahydro[1]benzothieno[2,3-d]pyrimidin-4-yl]amino}-1H-indazol-6-yl)oxy]ethyl}carbamate], the IC50 is reported as 0.2 nM.
With `CCOC(=O)NC[C@@H](C)Oc1cc2[nH]ncc2cc1Nc1ncnc2sc3c(c12)CC[C@H](C(=O)N(C)C)C3` [Example 263, Ethyl {(2R)-2-[(5-{[(7S)-7-(dimethylcarbamoyl)-5,6,7,8-tetrahydro[1]benzothieno[2,3-d]pyrimidin-4-yl]amino}-1H-indazol-6-yl)oxy]propyl}carbamate] the IC50 was 1.6 nM.
With `COC(=O)NC[C@@H](C)Oc1cc2[nH]ncc2cc1Nc1ncnc2sc3c(c12)CC[C@H](C(=O)N(C)C)C3` [Example 264, Methyl {(2R)-2-[(5-{[(7S)-7-(dimethylcarbamoyl)-5,6,7,8-tetrahydro[1]benzothieno[2,3-d]pyrimidin-4-yl]amino}-1H-indazol-6-yl)oxy]propyl}carbamate] the IC50 was 1.2 nM.
With `CN(C)C(=O)[C@H]1CCc2c(sc3ncnc(Nc4cc5cn[nH]c5cc4OC4CN(C(=O)OC(C)(C)C)C4)c23)C1` [Example 265, tert-Butyl 3-[(5-{[(7S)-7-(dimethylcarbamoyl)-5,6,7,8-tetrahydro[1]benzothieno[2,3-d]pyrimidin-4-yl]amino}-1H-indazol-6-yl)oxy]azetidine-1-carboxylate] the IC50 was 0.9 nM.
`C[C@@H]1CN(C(=O)[C@H]2CCc3c(sc4ncnc(Nc5cc6cn[nH]c6cc5OC5CN(C(=O)OC(C)(C)C)C5)c34)C2)C[C@H](C)O1` [Example 266, tert-Butyl 3-[(5-{[(7S)-7-{[(2R,6S)-2,6-dimethylmorpholin-4-yl]carbonyl}-5,6,7,8-tetrahydro[1]benzothieno[2,3-d]pyrimidin-4-yl]amino}-1H-indazol-6-yl)oxy]azetidine-1-carboxylate] showed an IC50 of 0.9 nM.
With `C[C@H]1COCCN1C(=O)[C@H]1CCc2c(sc3ncnc(Nc4cc5cn[nH]c5cc4OC4CN(C(=O)OC(C)(C)C)C4)c23)C1` [Example 267, tert-Butyl 3-[(5-{[(7S)-7-{[(3S)-3-methylmorpholin-4-yl]carbonyl}-5,6,7,8-tetrahydro[1]benzothieno[2,3-d]pyrimidin-4-yl]amino}-1H-indazol-6-yl)oxy]azetidine-1-carboxylate] the IC50 was 0.3 nM.
`C[C@H]1COCCN1C(=O)[C@H]1CCc2c(sc3ncnc(Nc4cc5cn[nH]c5cc4OC4CNC4)c23)C1` [Example 268, [(7S)-4-{[6-(Azetidin-3-yloxy)-1H-indazol-5-yl]amino}-5,6,7,8-tetrahydro[1]benzothieno[2,3-d]pyrimidin-7-yl][(3S)-3-methylmorpholin-4-yl]methanone] showed an IC50 of 0.6 nM.
`CCC(=O)NCCOc1cc2[nH]ncc2cc1Nc1ncnc2sc3c(c12)CC[C@H](C(=O)N(C)C)C3` [Example 269, (7S)—N,N-Dimethyl-4-({6-[2-(propanoylamino)ethoxy]-1H-indazol-5-yl}amino)-5,6,7,8-tetrahydro[1]benzothieno[2,3-d]pyrimidine-7-carboxamide] gave an IC50 of 1.3 nM.
`CCCC(=O)NCCOc1cc2[nH]ncc2cc1Nc1ncnc2sc3c(c12)CC[C@H](C(=O)N(C)C)C3` [Example 270, (7S)-4-({6-[2-(Butanoylamino)ethoxy]-1H-indazol-5-yl}amino)-N,N-dimethyl-5,6,7,8-tetrahydro[1]benzothieno[2,3-d]pyrimidine-7-carboxamide] showed an IC50 of 1.1 nM.
`CC(C)CC(=O)NCCOc1cc2[nH]ncc2cc1Nc1ncnc2sc3c(c12)CC[C@H](C(=O)N(C)C)C3` [Example 271, (7S)—N,N-Dimethyl-4-[(6-{2-[(3-methylbutanoyl)amino]ethoxy}-1H-indazol-5-yl)amino]-5,6,7,8-tetrahydro[1]benzothieno[2,3-d]pyrimidine-7-carboxamide] was tested, and the IC50 was 0.5 nM.
With `CN(C)C(=O)[C@H]1CCc2c(sc3ncnc(Nc4cc5cn[nH]c5cc4OCCNC(=O)CC(C)(C)C)c23)C1` [Example 272, (7S)-4-[(6-{2-[(3,3-Dimethylbutanoyl)amino]ethoxy}-1H-indazol-5-yl)amino]-N,N-dimethyl-5,6,7,8-tetrahydro[1]benzothieno[2,3-d]pyrimidine-7-carboxamide] the IC50 was 1.3 nM.
`CN(C)C(=O)[C@H]1CCc2c(sc3ncnc(Nc4cc5cn[nH]c5cc4OCCNC(=O)CC4CCCC4)c23)C1` [Example 273, (7S)-4-[(6-{2-[(Cyclopentylacetyl)amino]ethoxy}-1H-indazol-5-yl)amino]-N,N-dimethyl-5,6,7,8-tetrahydro[1]benzothieno[2,3-d]pyrimidine-7-carboxamide] was tested, and the IC50 was 0.4 nM.
Work on `CN(C)C(=O)[C@H]1CCc2c(sc3ncnc(Nc4cc5cn[nH]c5cc4OCCNC(=O)CC4CCCCC4)c23)C1` [Example 274, (7S)-4-[(6-{2-[(Cyclohexylacetyl)amino]ethoxy}-1H-indazol-5-yl)amino]-N,N-dimethyl-5,6,7,8-tetrahydro[1]benzothieno[2,3-d]pyrimidine-7-carboxamide] yielded an IC50 of 0.3 nM.
`CN(C)C(=O)[C@H]1CCc2c(sc3ncnc(Nc4cc5cn[nH]c5cc4OCCNCC(C)(C)C)c23)C1` [Example 275, (7S)-4-[(6-{2-[(2,2-Dimethylpropyl)amino]ethoxy}-1H-indazol-5-yl)amino]-N,N-dimethyl-5,6,7,8-tetrahydro[1]benzothieno[2,3-d]pyrimidine-7-carboxamide] showed an IC50 of 4.4 nM.
Work on `CN(C)C(=O)[C@H]1CCc2c(sc3ncnc(Nc4cc5cn[nH]c5cc4OCCCN4CC(F)C4)c23)C1` [Example 276, (7S)-4-({6-[3-(3-Fluoroazetidin-1-yl)propoxy]-1H-indazol-5-yl}amino)-N,N-dimethyl-5,6,7,8-tetrahydro[1]benzothieno[2,3-d]pyrimidine-7-carboxamide] yielded an IC50 of 10.2 nM.
